The values below come from patent US20080188449A1, “Treatment of Conditions Caused By Calcium Abnormalities” (priority 2004, published 2008).

Structures are written as SMILES.

What all share (format): cell-based
The test system of assay [1] is Pkd1^−/− murine kidney epithelial cells. The assay is described as follows: Growth, p21 and active caspase-3 in Pkd1^−/− cells. How it is done:
Calcium response to triptolide was, thus, shown to be dependent on polycystin-2. The biological response to calcium flux was next assessed in the murine Pkd1^−/− cell line, by adding 100 nM triptolide to the cultured cells and observing cell growth over time. Within the first 24 hours of culture, a minimal number of detached cells was observed. […] In the absence of triptolide, this cell line underwent a population doubling every 48 hours. […] It is possible that additional signaling pathways are activated by triptolide when Pkd1 is expressed. […] Therefore, Applicants assessed whether the inhibition of proliferation observed was due to p21 re-expression upon triptolide treatment.
The Pkd1^−/−(MN24), Pkd2^+/−(3B3) and Pkd2^−/−(2D2) murine cell lines were derived from knockout and transgenic mice as previously reported (Wu, et al., 1998, Cell, 93:177-88; Wu, et al., 2000, Nat. Genet, 24:75-8; Wu, et al., 2002, Hum Mol Genet, 11:1845-54). The PKD2-Rex cell line was made by stable integration of untagged PKD2 under hygromycin selection. Antibodies used included polycystin-2 (Cai, et al. 1999, J Biol Chem, 274:28557-65), cleaved (active) caspase-3 (Cell Signaling Technology) and p21 (BD Biosciences). Triptolide was obtained from Sinobest Inc. (China) and purity was 99% as determined by HPLC. DMSO was used to dissolve triptolide and was then directly added into culture media for all experiments. Triptolide was tritiated by Sib Tech, Inc. (Newington, Conn.) and resuspended in ethanol to a specific activity of 4-6 Ci/mmol. Purity was >95% as confirmed by RP-HPLC on a Hypersil C18 column and by TLC on both C18 and silica gel.
Total cell lysates (0.5% Triton X-100, 50 mM Tris pH 7.4, 150 mM NaCl, […]) were prepared for Western blot analysis and samples were run out by SDS-PAGE as per manufacturers' protocols. Brightfield images of cells were taken using a 10× or 40× objective. Confocal microscopy (40×) was used for immunofluorescence imaging of polycystin-2.

Assay [2] has as its target T1, polycystin-2 (Mus musculus, UniProt O35245).
T1 construct: murine cell lines were derived from knockout and transgenic mice as previously reported; endogenous in cells; host or cells: Murine kidney proximal tubule epithelial cells, Pkd1-/- (MN24)
T1 sequence (O35245 1-966): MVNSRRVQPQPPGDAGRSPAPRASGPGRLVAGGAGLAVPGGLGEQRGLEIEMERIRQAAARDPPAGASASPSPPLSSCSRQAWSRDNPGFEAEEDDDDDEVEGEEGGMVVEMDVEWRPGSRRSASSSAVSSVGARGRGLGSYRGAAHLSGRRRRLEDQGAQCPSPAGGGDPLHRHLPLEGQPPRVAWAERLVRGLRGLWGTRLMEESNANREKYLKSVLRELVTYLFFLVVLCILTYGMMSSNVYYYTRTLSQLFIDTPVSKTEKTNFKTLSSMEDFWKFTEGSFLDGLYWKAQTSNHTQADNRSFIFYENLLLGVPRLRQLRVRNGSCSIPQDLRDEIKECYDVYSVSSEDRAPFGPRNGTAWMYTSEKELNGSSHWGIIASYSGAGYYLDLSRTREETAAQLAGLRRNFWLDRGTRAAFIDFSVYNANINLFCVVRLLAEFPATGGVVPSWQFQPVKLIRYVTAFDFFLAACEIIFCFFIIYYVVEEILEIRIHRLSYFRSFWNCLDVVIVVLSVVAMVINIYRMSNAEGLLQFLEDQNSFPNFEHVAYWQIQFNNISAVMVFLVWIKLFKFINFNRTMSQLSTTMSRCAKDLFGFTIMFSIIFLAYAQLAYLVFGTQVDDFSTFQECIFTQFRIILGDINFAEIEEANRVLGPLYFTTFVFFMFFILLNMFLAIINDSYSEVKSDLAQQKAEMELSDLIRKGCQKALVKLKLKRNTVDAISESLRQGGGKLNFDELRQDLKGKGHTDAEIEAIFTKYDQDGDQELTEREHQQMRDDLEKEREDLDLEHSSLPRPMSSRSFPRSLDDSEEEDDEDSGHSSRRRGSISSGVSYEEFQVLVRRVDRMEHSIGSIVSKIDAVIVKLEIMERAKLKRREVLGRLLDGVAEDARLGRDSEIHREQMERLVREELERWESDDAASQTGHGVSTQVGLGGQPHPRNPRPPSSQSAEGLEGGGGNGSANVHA
The assay is described as follows: Fluo-4 calcium imaging in murine kidney epithelial cells. The following applies: 100 nM perfused, Pkd1^−/− cells. The source says:
(§1) Murine kidney epithelial cell lines with differing polycystin-1 or polycystin-2 expression were used to establish a cellular based mechanism for polycystin-2 mediated calcium release in response to triptolide. Because the biochemical purification analysis identified polycystin-2 as a putative triptolide binding protein, Applicants assessed whether the calcium release was dependent upon expression of polycystin-1. Epithelial cells derived from the proximal nephric tubules of Pkd1^−/− mice were first examined to determine if calcium release was observed when 100 nM of triptolide was perfused through the imaging chamber. […] To strengthen the evidence that polycystin-2 was necessary for calcium release elicited by triptolide addition, it was reconstituted by stable expression of Pkd2 into the background of Pkd2^−/− cells, which were assessed for sensitivity to triptolide.
(§2) Cells were plated on coverslips and loaded with Fluo-4 (Molecular Probes) diluted in DMSO/pluronic for 30 minutes prior to imaging. Cells were perfused with a calcium imaging buffer (HEPES, NaCl, KCl, MgSO4 and CaCl2)±100 nM triptolide. All cell traces are indicative of individual cellular fluorescence and calcium release. Data is presented as change of fluorescence over baseline control (no triptolide addition).

Assay [3] deals with polycystin-2. Described as above.
Description: as §1, §2

As for `CC(C)[C@]12O[C@H]1[C@@H]1O[C@]13[C@]1(O[C@H]1C[C@H]1C4=C(CC[C@@]13C)C(=O)OC4)[C@@H]2O` [triptolide, Triptolide], the “active caspase-3 (western blot)” value in assay [1] (100 nM time course) is on record as “failed to implicate triptolide induced apoptosis”. Further, the “p21 expression (western blot)” value in assay [1] (100 nM, 96 hour time course) was “upregulated”. Further, the cell growth result in assay [1] (100 nM, over 96 hours) is “growth arrested”. Moreover, the calcium release entry at polycystin-2 [2] was “clear rise in intracellular calcium levels”; in the assay with polycystin-2 [3] (100 nM perfused, Pkd2^−/− cells), “no calcium release was detected”; in the assay with polycystin-2 [3] (100 nM, Pkd2 re-expressed in Pkd2^−/− cells), “restored calcium release”.
